The text below walks through data of US20210113560A1, “METHOD OF TREATING FIBROTIC DISEASE” (BLADE THERAPEUTICS, INC., priority 2018, published 2021).

Peptide text beside a SMILES is read from it. * marks the point of attachment. Cbz = O=C(OCc1ccccc1)*

One assay has as its target T1, CatK (Homo sapiens, UniProt P43235).
T1 sequence (P43235 115-329): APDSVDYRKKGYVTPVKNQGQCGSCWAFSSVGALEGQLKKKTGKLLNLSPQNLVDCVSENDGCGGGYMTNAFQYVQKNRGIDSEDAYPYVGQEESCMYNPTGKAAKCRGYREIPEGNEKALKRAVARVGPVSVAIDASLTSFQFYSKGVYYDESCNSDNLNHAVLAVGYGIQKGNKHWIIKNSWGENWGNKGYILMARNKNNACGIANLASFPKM
Nature of the assay: Dilution of enzyme-inhibitor complex into substrate, reactivation over time (FIG. 1). Type of assay: biochemical. The conditions noted are these: compared to unbound CatK control. The source says: (§1) FIG. 1: Dissociation of Compound 10 from calpain 2 (CAPN2). Complexes of Compound 10 with either CatK or CAPN2 were generated, followed by dilution into substrate-containing assay wells to initiate data collection. Reactivation of the target enzymes due to dissociation of the enzyme-inhibitor complexes was observed as a function of time. […] CAPN2 control (upper dashed line). Thus, inhibition of CAPN2 by Compound 10 is retained even in the absence of excess Compound 10. Further, this effect is selective and provides a basis for specific action of Compound 10 against CAPN2.
Regarding `Cc1nc(-c2ccccc2F)c(C(=O)NC(Cc2ccccc2)C(=O)C(N)=O)o1` (centres unmarked) [Compound 10], the “Reactivation of CatK after dilution of the CatK-compound complex” value is “almost an immediate reactivation”.

The target in a further assay is T2, calpain 2 (CAPN2) (Homo sapiens, UniProt P17655).
T2 sequence (P17655 20-700 limits assumed): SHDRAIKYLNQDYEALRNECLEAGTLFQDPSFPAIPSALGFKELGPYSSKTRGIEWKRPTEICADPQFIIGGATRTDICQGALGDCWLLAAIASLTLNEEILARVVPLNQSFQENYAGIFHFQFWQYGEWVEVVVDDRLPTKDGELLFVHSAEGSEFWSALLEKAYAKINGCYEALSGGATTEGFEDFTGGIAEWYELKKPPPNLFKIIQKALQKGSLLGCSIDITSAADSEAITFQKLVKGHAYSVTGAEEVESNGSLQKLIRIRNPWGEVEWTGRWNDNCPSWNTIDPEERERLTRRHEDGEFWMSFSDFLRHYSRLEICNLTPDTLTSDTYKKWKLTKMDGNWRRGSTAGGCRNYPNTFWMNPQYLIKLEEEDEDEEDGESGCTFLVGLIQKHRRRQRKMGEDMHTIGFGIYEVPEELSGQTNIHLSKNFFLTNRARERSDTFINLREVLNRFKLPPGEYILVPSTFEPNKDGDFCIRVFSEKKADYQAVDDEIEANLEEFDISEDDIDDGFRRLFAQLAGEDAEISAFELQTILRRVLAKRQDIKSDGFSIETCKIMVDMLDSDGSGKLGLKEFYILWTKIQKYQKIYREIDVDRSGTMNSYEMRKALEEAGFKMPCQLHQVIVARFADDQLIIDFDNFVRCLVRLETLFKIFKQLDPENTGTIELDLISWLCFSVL
T2 sequence (P04632 1-268 partner): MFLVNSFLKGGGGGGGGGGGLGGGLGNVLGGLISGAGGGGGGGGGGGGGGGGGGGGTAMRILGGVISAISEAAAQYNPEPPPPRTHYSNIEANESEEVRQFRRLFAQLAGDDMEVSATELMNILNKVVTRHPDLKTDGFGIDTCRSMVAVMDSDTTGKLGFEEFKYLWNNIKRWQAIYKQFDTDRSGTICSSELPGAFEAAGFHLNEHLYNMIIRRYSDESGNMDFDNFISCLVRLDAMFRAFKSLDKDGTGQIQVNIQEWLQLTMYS
Described as above. The assay is classed as biochemical. The conditions noted are these: relative to unbound CAPN2 control; absence of excess compound.
Text: as §1
For the compound `Cc1nc(-c2ccccc2F)c(C(=O)NC(Cc2ccccc2)C(=O)C(N)=O)o1` (centres unmarked) [Compound 10], the “Retention of CAPN2 inhibition after dilution of the complex” value is reported as “inhibition is retained”.

For a further assay, the target named is T3, CAPN2 (Homo sapiens, UniProt P17655).
T3 sequence (P17655 20-700 limits assumed): T2 sequence (P17655 20-700 limits assumed)
T3 sequence (P04632 1-268 partner): T2 sequence (P04632 1-268 partner)
Nature of the assay: Activity based probe (ABP) off-rate assay of CAPN2 inhibitors, SDS-PAGE readout. The assay is classed as binding. The conditions noted are these: t1/2=0.693/k from first order decay fit; complex diluted ten-fold into 10 uM ABP; time points 0-24 hours. The source says:
FIG. 2: Dissociation of Compound 10 from calpain 2 (CAPN2). Complexes of Compound 10 with CAPN2 were generated, followed by dilution into an excess of Compound 29 (a probe for unbound CAPN2). Samples were taken at the time points (lanes 1-6 for 0, 1, 2, 4, 7 and 24 hr respectively) and analyzed by gel electrophoresis to determine the amount of Compound 29 probe incorporation. Lanes 7 and 8 reflect negative and positive controls for probe labeling, respectively. The dissociation rate and half-life for the Compound 10-CAPN2 complex was then calculated.
A fluorescently labeled irreversible activity based probe (ABP) was used to measure off rates of CAPN2 inhibitors as follows. The ABP molecule contains a fluoro-methyl ketone warhead that irreversibly reacts with the active site cysteine nucleophile of CAPN enzymes. ABP is also labeled with the Alexa 647 fluorophore which allows for sensitive quantitation of the CAPN2.ABP adduct.
The assay is typically performed by pre-incubating 2 uM CAPN2 with […] test inhibitor for 30 minutes in assay buffer (50 mM Tris-HCl, 100 mM NaCl, 2 mM CaCl2, 1 mM DTT, 0.02% Brij-35, pH7.4). This incubation mixture (containing the CAPN2.inhibitor complex) is diluted ten-fold into the same assay buffer containing 10 uM ABP. This is time zero at which an aliquot is immediately withdrawn and quenched by adding denaturing SDS-PAGE loading buffer and heating at 95° C. for 5 minutes. Additional aliquots are typically withdrawn and quenched at time points of 0.5, 1, 2, 4, 7, 24 hours. Quenched samples are stored frozen at −80° C. until SDS-PAGE analysis.
For a given test inhibitor, all time points are run on the same gel with the following two control samples. An assay minimum control is prepared by pre-incubating 2 uM CAPN2 in assay buffer for 1 hour. The incubation mixture is diluted, ten-fold into the same assay buffer containing 10 uM ABP, reacted for 30 minutes and quenched. After the initial 1 hour incubation, the CAPN2 enzyme is autolytically degraded and should generate little to no signal. An assay maximum control is prepared by adding 10 uM ABP to 0.2 uM CAPN2 in assay buffer and incubating for 30 minutes and quenching.
After SDS-PAGE, the gel is scanned using a LAS4000 ImageQuant platform to quantify the Alexa 647 intensity at ˜75 kDa (molecular weight of full length activated CAPN2). The minimum and maximum controls on each gel are used to calculate percentage of test compound bound at each time point. […] Using the equation t1/2=0.693/k, the off rate (k) is converted to and reported as CAPN2.inhibitor complex half-life (t1/2).
For the compound `NC(=O)C(=O)C(Cc1ccccc1)NC(=O)c1cn(C(F)F)nc1-c1cccc2cnccc12` (centres unmarked) [Compound 1], the “Half-life of Compound-CAPN2 Complex” value worked out at 2.8 h.
Turning to `NC(=O)C(=O)C(Cc1ccccc1)NC(=O)c1nsnc1-c1cccc2c1OC(F)(F)O2` (centres unmarked) [Compound 2], the “Half-life of Compound-CAPN2 Complex” value turned out to be 9.63 h.
In the case of `Cc1cc(C(=O)NC(Cc2ccccc2)C(=O)C(N)=O)n(-c2ccccn2)n1` (centres unmarked) [Compound 5], the “Half-life of Compound-CAPN2 Complex” value came to 0.467 h.
For `O=C(NC1CC1)C(=O)C(Cc1ccccc1)NC(=O)c1nsnc1-c1ccccc1` (centres unmarked) [Compound 6], the “Half-life of Compound-CAPN2 Complex” value was determined as 0.383 h.
The same measure, in the same setting: the figure for `O=CC(Cc1ccccc1)NC(=O)c1nsnc1-c1ccccc1` (centres unmarked) [Compound 7] is 1.05 h.
Still for that read-out and setting: the figure for `NC(=O)C(=O)C(Cc1ccccc1)NC(=O)c1c(C(F)(F)F)ccc(Cl)c1F` (centres unmarked) [Compound 8] is 2.4 h; for `O=C(NC1CC1)C(=O)C(Cc1ccccc1)NC(=O)[C@H]1CCC(=O)N1Cc1ccccc1` (some centres unmarked) [Compound 9] it is 0.083 h; for `Cc1nc(-c2ccccc2F)c(C(=O)NC(Cc2ccccc2)C(=O)C(N)=O)o1` (centres unmarked) [Compound 10] it is 2.7 h.
The same measure, in the same setting: the result for `Cc1nc(-c2cccc(F)c2)c(C(=O)NC(Cc2ccccc2)C(=O)C(N)=O)o1` (centres unmarked) [Compound 11] reads 3.53 h; that for `NC(=O)C(=O)C(Cc1ccccc1)NC(=O)c1cn(C2CC2)nc1-c1ccccc1` (centres unmarked) [Compound 12], 0.333 h; that for `Cn1cc(C(=O)NC(Cc2ccccc2)C(=O)C(N)=O)c(-c2cccc(F)c2)n1` (centres unmarked) [Compound 13], 0.633 h.
Consider `Cc1nc(-c2ccccc2)c(C(=O)NC(Cc2ccccc2)C(=O)C(N)=O)o1` (centres unmarked) [Compound 14], for which the “Half-life of Compound-CAPN2 Complex” value worked out at 5.4 h.
Same read-out and setting: the figure for `Cn1cc(C(=O)NC(Cc2ccccc2)C(=O)C(N)=O)c(-c2ccccc2F)n1` (centres unmarked) [Compound 16] is 0.867 h; for `NC(=O)C(=O)C(Cc1ccccc1)NC(=O)c1cn(C(F)F)nc1-c1ccccc1` (centres unmarked) [Compound 17] it is 2.1 h.
The same measure, in the same setting: the figure for `NC(=O)C(=O)C(Cc1ccccc1)NC(=O)c1nsnc1-c1ccccc1F` (centres unmarked) [Compound 18] is 5.5 h; for `NC(=O)C(=O)C(Cc1ccccc1)NC(=O)c1nsnc1-c1cccc(F)c1` (centres unmarked) [Compound 19] it is 2.8 h.
Same read-out and setting: the result for `Cc1cc(C(=O)N[C@@H](Cc2ccccc2)C(=O)C(N)=O)n(-c2ccccc2)n1` [Compound 21] reads 2.7 h.
Take `CC[C@H](NC(=O)[C@H](CC(C)C)NC(=O)OCc1ccccc1)C(=O)C(=O)NCc1cc(OC)cc(OC)c1` [Compound 23]: the “Half-life of Compound-CAPN2 Complex” value was 1 h.
Still for that read-out and setting: the result for `NC(=O)C(=O)C(Cc1ccccc1)NC(=O)c1nsnc1-c1ccccc1` (centres unmarked) [Compound 24] reads 6.6 h.
On to `NC(=O)C(=O)[C@H](Cc1ccccc1)NC(=O)c1cnoc1-c1ccccc1` [Compound 25], for which the “Half-life of Compound-CAPN2 Complex” value came to 1.6 h.
Still for that read-out and setting: the figure for `Cn1cc(C(=O)N[C@@H](Cc2ccccc2)C(=O)C(N)=O)c(-c2ccccc2)n1` [Compound 26] is 0.483 h; for `CCN(CC)Cc1ccc(/C=C/c2ccccc2C(=O)NC(Cc2ccccc2)C(=O)C(N)=O)cc1` (centres unmarked) [Compound 27] it is 0.9 h.
Same read-out and setting: the result for `CC(C)[C@H](NC(=O)OCc1ccccc1)C(=O)N[C@H](C=O)Cc1ccccc1` [Compound 28] (Cbz-Val-Phe-aldehyde) reads 3 h; that for `CC(C)[C@@H](NC(=O)CCCNC(=O)CCCCCC1(C)C(/C=C/C=C/C=C2/N(CCCS(=O)(=O)O)c3ccccc3C2(C)C)=[N+](CCCS(=O)(=O)O)c2ccc(S(=O)(=O)O)cc21)C(=O)NC(Cc1ccccc1)C(=O)CF` (some centres unmarked) [Compound 29], 7 h; that for `CC(C)C(NC(=O)OCc1ccccc1)C(=O)NC(Cc1ccccc1)C(=O)C(N)=O` (centres unmarked) [Compound 30], 17.77 h.
On the same count and under the same terms, the result for `NC(=O)C(=O)C(Cc1ccccc1)NC(=O)c1nsnc1-c1cccc2c1OC(F)(F)O2` (centres unmarked) [Compound 31] reads 4.87 h; that for `NC(=O)C(=O)C(Cc1ccccc1)NC(=O)c1nsnc1-c1ccccn1` (centres unmarked) [Compound 32], 2.32 h; that for `O=C(O)C(=O)C(Cc1ccccc1)NC(=O)c1nsnc1-c1ccccc1` (centres unmarked) [Compound 33], 1.87 h.
For the compound `NC(=O)C(=O)C(Cc1ccccc1)NC(=O)c1nsnc1-c1ccncn1` (centres unmarked) [Compound 34], the “Half-life of Compound-CAPN2 Complex” value turned out to be 1.27 h.
On the same count and under the same terms, the figure for `NC(=O)C(=O)C(Cc1ccccc1)NC(=O)c1nsnc1-c1cnccn1` (centres unmarked) [Compound 35] is 1.03 h.
Same read-out and setting: the result for `Cc1c(F)cccc1-c1nsnc1C(=O)NC(Cc1ccccc1)C(=O)C(N)=O` (centres unmarked) [Compound 36] reads 0.75 h.
In the case of `Cn1cc(C(=O)NC(Cc2ccccc2)C(=O)C(N)=O)c(-c2cccc3cn[nH]c23)n1` (centres unmarked) [Compound 37], the “Half-life of Compound-CAPN2 Complex” value came to 0.65 h.
Still for that read-out and setting: the figure for `Cn1cc(C(=O)NC(Cc2ccccc2)C(=O)C(N)=O)c(-c2cccc3oc(=O)[nH]c23)n1` (centres unmarked) [Compound 38] is 0.65 h.
Consider `Cc1cncc(-c2nn(C(F)F)cc2C(=O)NC(Cc2ccccc2)C(=O)C(N)=O)c1` (centres unmarked) [Compound 39], for which the “Half-life of Compound-CAPN2 Complex” value was 0.533 h.
As to `Cc1nc(-c2ccccc2F)c(C(=O)NC(Cc2ccccc2)C(=O)C(=O)O)o1` (centres unmarked) [Compound 40], the “Half-life of Compound-CAPN2 Complex” value amounted to 0.467 h.
Still for that read-out and setting: the figure for `Cn1cc(C(=O)NC(Cc2ccccc2)C(=O)C(N)=O)c(-c2cccc3c2OC(F)(F)O3)n1` (centres unmarked) [Compound 41] is 0.45 h.
